Experimental findings from US20080227222A1, “Method for the detection of target molecules by fluorescence polarization using peptide mimics” (priority 2007, published 2008) are described below.

Assay [1] deals with anti-γ-interferon antibody (FA42). Briefly: Competition of fluorescently tagged peptides with IFN-41 expressing phage for binding to FA42. The note with it: fluorescently tagged peptide against phage. The protocol: Further analysis of the peptide mimics sought to ascertain whether these peptides operated in the same manner as they do when expressed on the surface of the phage. In order to ascertain if these peptides operated in the same manner as they do when expressed on the surface of the phage, a competition assay was performed. In this assay, the newly created peptides were used to compete with the peptides on the surface of the phage for binding to FA42.
A gradient of inhibition of IFN-41 expressing phage binding by the two peptides is shown. The control peptide (ACA-20) is a mimic of cortisol. […] Additionally, FIG. 5 illustrates gradient inhibition of IFN-41 and IFN-19 using anti-gamma-interferon antibody.

The subject of assay [2] is anti-cortisol antibody (ACA). Briefly: ELISA binding of phagotopes to anti-cortisol antibody (biopanning screen). The conditions noted are these: phagotope expressing peptide, FIG. 2. The protocol: Identification of reactive phagotopes was conducted by either direct, where the phagotopes are coated directly to the plate, or capture ELISA, were the phagotopes are tethered to the plate via the selection antibody. The two ELISA methods were employed because direct ELISA identifies highly reactive phagotopes that are likely to contain a strong motif, whereas the capture ELISA is more sensitive, therefore also selecting for phagotopes involving only weak interactions. For the direct ELISA, phage preparations were diluted in sterile PBS and duplicate samples of 100 μl/well were added to a 96-well microtitre plate. Plates were left overnight at 4° C., blocked for 2 hours at room temperature with 1% skimmed milk powder and 0.05% Tween 20 in PBS ph 7.4 and washed three times in Tris-buffered saline, pH 7.4, containing 0.05% polyoxyethylene (20) sorbitan monolaurate (TWEEN 20™). 100 μl of specific antibody diluted to 1 μg/ml in 1% PBS-polyoxyethylene (20) sorbitan monolaurate were added and left overnight. […] Absorbances were read at 415 nm after 30 minutes and 60 minutes. […]
A general note: An ELISA detects its analyte on a solid surface through an enzyme-linked reagent.

Assay [3] deals with anti-cortisol antibody (ACA). In words: Competition ELISA: increasing cortisol against plate-coated phagotope for anti-cortisol antibody. The class given is binding. The note with it: increasing amounts of cortisol, constant phage, FIG. 3. The protocol:
Plates were coated with phagotopes and blocked as for the direct ELISA. […] Increasing amounts of cortisol was then added to 100 μl of specific antibody in 1% PBS-polyoxyethylene (20) sorbitan monolaurate. 100 μl replicates (4-6) of antibody/cortisol inhibitor was then left overnight.
The plates were washed and developed as for the direct ELISA. The results of these studies are illustrated in FIG. 3.

Assay [4] deals with anti-gamma-interferon antibody. In words: Competition ELISA: increasing gamma-interferon against constant phage containing peptide mimic. The class given is binding. The note with it: constant phage containing the mimic, detected with anti-phage antibody. The protocol:
In order to identify peptide mimics, the procedure for described in Example 1 was followed. FA42™ anti-Gamma-interferon monoclonal antibody (Cellestis, Inc, Valencia, Calif.) was used in the screening of peptide mimics.
Identification of epitope sites that the peptides represented were then determined by comparing the peptide sequences with the known γ-interferon sequence. The identified peptides were then evaluated by the ability of gamma-interferon to inhibit binding of anti-γ-interferon antibody in ELISA. The results of this study is illustrated in FIG. 3 for peptide IFN-28. […] Phage binding was identified, in this study, using a specific anti-phage antibody.

Take TQYSQQM (CSQYSQLYC) [IFN-19]: in assay [1], the “competition with IFN-41 expressing phage for binding to anti-γ-interferon antibody” value (shortened to “competition with IFN-41 expressing phage”) is recorded as “competed”.
With “TQYEQHY (CTQYEQHYC; listed as Homo sapiens) [IFN-41]”, in assay [1], the “competition with IFN-41 expressing phage” value was “competed”.
As to “YFTPVFINPTQV (listed as Homo sapiens) [ACA-20, control peptide in the gamma-interferon assay]”, in assay [1], the “competition with IFN-41 expressing phage” value was “did not compete”.
As for “ACA 20 (1): phagotope expressing peptide with high anti-cortisol antibody binding; probably clone of ACA-20 (YFTPVFINPTQV)”, the anti-cortisol antibody binding entry in assay [2] is reported as “comparatively high anti-cortisol antibody binding”. For the same substance, in assay [3], the “competition by cortisol for antibody binding” value is on record as “overlapping, dose-response competitive binding curves”.
On to “ACA 20 (2): phagotope expressing peptide with high anti-cortisol antibody binding; probably clone of ACA-20 (YFTPVFINPTQV)”, for which the anti-cortisol antibody binding result in assay [2] is recorded as “comparatively high anti-cortisol antibody binding”. The “competition by cortisol for antibody binding” value in assay [3] is on record as “overlapping, dose-response competitive binding curves”.
As for “SQYENNH (CSQYENNHC; listed as Homo sapiens) [IFN-28]”, the “competition for binding to anti-gamma-interferon antibody” value in assay [4] is “graded competition”.
